From publication PMC8286840, “Identifying SARS-CoV-2 antiviral compounds by screening for small molecule inhibitors of Nsp3 papain-like protease” (Biochemical Journal, 2021)
Counter-ions that a name gives are not always drawn. Like-named read-outs stand apart in the source and are kept apart here.

Columns and labels:
[1] = molecular target: T1, SARS-CoV-2 PLpro (nsp3 1564–1878) (Severe acute respiratory syndrome coronavirus 2, UniProt P0DTD1); test: biochemical; parameters: FRET-quenched peptide (Pro3) cleavage by PLpro, 10 min pre-incubation, slope over 20 min, normalised to no-compound control; conditions: read-out: % of control remaining
[2] = molecular target: T1, SARS-CoV-2 PLpro (nsp3 1564–1878); test: biochemical; parameters: FRET-quenched peptide (Pro3) cleavage by PLpro, 10 min pre-incubation, slope over 20 min, normalised to no-compound control; conditions: read-out: % of control remaining; remark: listed apart in the source

Structure (SMILES): NCC(O)c1ccc(O)cc1 (racemic) [(+,-)-Octopamine HCl]
- remaining activity at 1.25 µM ([1]; Well no.=5038, low concentration screen): 101%
- remaining activity at 3.75 µM ([2]; Well no.=5038, high concentration screen): 103%

Structure (SMILES): CO[C@H]1C[C@@H]2CC[C@@H](C)[C@@](O)(O2)C(=O)C(=O)N2CCCC[C@H]2C(=O)O[C@H]([C@H](C)C[C@@H]2CC[C@@H](O)[C@H](OC)C2)CC(=O)[C@H](C)/C=C(\C)[C@@H](O)[C@@H](OC)C(=O)[C@H](C)C[C@H](C)/C=C/C=C/C=C/1C [Rapamycin]
- remaining activity at 1.25 µM ([1]; Well no.=1557, low concentration screen): 99.1%
- remaining activity at 1.25 µM ([1]; Well no.=2555, low concentration screen): 93.5%
- remaining activity at 1.25 µM ([1]; Well no.=3126, low concentration screen): 102%
- remaining activity at 3.75 µM ([2]; Well no.=1557, high concentration screen): 97.9%
- remaining activity at 3.75 µM ([2]; Well no.=2555, high concentration screen): 91.9%
- remaining activity at 3.75 µM ([2]; Well no.=3126, high concentration screen): 106%

Structure (SMILES): C/C=C/C[C@@H](C)C(=O)[C@H]1C(=O)N[C@@H](C(C)C)C(=O)N(C)CC(=O)N(C)[C@@H](CC(C)C)C(=O)N[C@@H](C(C)C)C(=O)N(C)[C@@H](CC(C)C)C(=O)N[C@@H](C)C(=O)N[C@H](C)C(=O)N(C)[C@@H](CC(C)C)C(=O)N(C)[C@@H](CC(C)C)C(=O)N(C)[C@@H](C(C)C)C(=O)N1C [Valspodar]
- remaining activity at 1.25 µM ([1]; Well no.=8226, low concentration screen): 94.7%
- remaining activity at 3.75 µM ([2]; Well no.=8226, high concentration screen): 94.7%

Structure (SMILES): CC(=O)NCCCCCN [N-(5-Aminopentyl)acetamide]
- remaining activity at 1.25 µM ([1]; Well no.=6155, low concentration screen): 98.4%
- remaining activity at 3.75 µM ([2]; Well no.=6155, high concentration screen): 89.4%

Structure (SMILES): CC(N)=O [Acetamide]
- remaining activity at 1.25 µM ([1]; Well no.=7, low concentration screen): 101%
- remaining activity at 3.75 µM ([2]; Well no.=7, high concentration screen): 101%

Structure (SMILES): CC(C)(Oc1ccc(C2CC2(Cl)Cl)cc1)C(=O)O (centres unmarked) [Ciprofibrate]
- remaining activity at 1.25 µM ([1]; Well no.=41, low concentration screen): 92.6%
- remaining activity at 3.75 µM ([2]; Well no.=41, high concentration screen): 93.5%

Structure (SMILES): CCCC[C@@H](NC(=O)[C@@H](Cc1cn(C(=O)OC)c2ccccc12)NC(=O)[C@H](CC(C)(C)C)NC(=O)N1[C@H](C)CCC[C@@H]1C)C(=O)O [BQ-788 (sodium salt)]
- remaining activity at 1.25 µM ([1]; Well no.=8560, low concentration screen): 108%
- remaining activity at 3.75 µM ([2]; Well no.=8560, high concentration screen): 101%

Structure (SMILES): CC(C)C[C@H](NC(=O)CNC(=O)c1cc(Cl)ccc1Cl)B(O)O [MLN2238]
- remaining activity at 1.25 µM ([1]; Well no.=4808, low concentration screen): 96.1%
- remaining activity at 3.75 µM ([2]; Well no.=4808, high concentration screen): 97.1%

Structure (SMILES): O=C(CCCN1CCC(O)(c2cccc(C(F)(F)F)c2)CC1)c1ccc(F)cc1 [Trifluperidol]
- remaining activity at 1.25 µM ([1]; Well no.=2296, low concentration screen): 95.3%
- remaining activity at 3.75 µM ([2]; Well no.=2296, high concentration screen): 96.6%

Structure (SMILES): NCCCC[C@@H]1NC(=O)[C@@H](Cc2ccccc2)NC(=O)[C@H](CC(=O)O)NC(=O)CNC(=O)[C@H](CCCN=C(N)N)NC1=O [Cyclo(-RGDfK)]
- remaining activity at 1.25 µM ([1]; Well no.=8410, low concentration screen): 96.3%
- remaining activity at 3.75 µM ([2]; Well no.=8410, high concentration screen): 96.9%

Structure (SMILES): C=CCc1cc(OC)c2c(c1)OCO2 [Myristicin]
- remaining activity at 1.25 µM ([1]; Well no.=3473, low concentration screen): 99%
- remaining activity at 3.75 µM ([2]; Well no.=3473, high concentration screen): 99.9%

Structure (SMILES): CNNCc1ccc(C(=O)NC(C)C)cc1 [Procarbazine]
- remaining activity at 1.25 µM ([1]; Well no.=2145, low concentration screen): 104%
- remaining activity at 3.75 µM ([2]; Well no.=2145, high concentration screen): 105%

Structure (SMILES): c1ccc(-c2n[nH]c3c2oc2ccccc23)cc1 [GTP-14564]
- remaining activity at 1.25 µM ([1]; Well no.=2417, low concentration screen): 104%
- remaining activity at 3.75 µM ([2]; Well no.=2417, high concentration screen): 105%

Structure (SMILES): CC(C)(C)c1ccc(S(=O)(=O)Nc2ccc(Cl)cc2C(=O)c2cc[n+]([O-])cc2)cc1 [Vercirnon]
- remaining activity at 1.25 µM ([1]; Well no.=8645, low concentration screen): 103%
- remaining activity at 3.75 µM ([2]; Well no.=8645, high concentration screen): 103%

Structure (SMILES): CCOC(=O)O[C@]1(C(=O)OCCl)CC[C@H]2[C@@H]3CCC4=CC(=O)C=C[C@]4(C)[C@H]3[C@@H](O)C[C@@]21C [Loteprednol Etabonate]
- remaining activity at 1.25 µM ([1]; Well no.=4618, low concentration screen): 98%
- remaining activity at 1.25 µM ([1]; Well no.=6459, low concentration screen): 99.9%
- remaining activity at 3.75 µM ([2]; Well no.=4618, high concentration screen): 103%
- remaining activity at 3.75 µM ([2]; Well no.=6459, high concentration screen): 97.6%

Structure (SMILES): CN1C(=O)C(Cc2ccc3ccccc3c2)N=C(c2ccc(O)cc2)c2cc(Cl)ccc21 (centres unmarked) [Bz 423]
- remaining activity at 1.25 µM [1]: 96.5%
- remaining activity at 3.75 µM [2]: 93.6%

Structure (SMILES): C[C@@H]1C(=O)NC2=Nc3cccc(Cl)c3CN21 [Quazinone]
- remaining activity at 1.25 µM ([1]; Well no.=1221, low concentration screen): 96.6%
- remaining activity at 3.75 µM ([2]; Well no.=1221, high concentration screen): 95.5%

Structure (SMILES): CN(c1ncccc1CNc1nc(Nc2ccc3c(c2)CC(=O)N3)ncc1C(F)(F)F)S(C)(=O)=O [PF-562271]
- remaining activity at 1.25 µM ([1]; Well no.=2699, low concentration screen): 97.1%
- remaining activity at 3.75 µM ([2]; Well no.=2699, high concentration screen): 100%

Structure (SMILES): CN1C(C(=O)Nc2ccccn2)=C(O)c2ccccc2S1(=O)=O [Piroxicam]
- remaining activity at 1.25 µM ([1]; Well no.=862, low concentration screen): 99.8%
- remaining activity at 1.25 µM ([1]; Well no.=1566, low concentration screen): 98.4%
- remaining activity at 3.75 µM ([2]; Well no.=862, high concentration screen): 103%
- remaining activity at 3.75 µM ([2]; Well no.=1566, high concentration screen): 99.8%

Structure (SMILES): COC1=CC(=O)O[C@@H](/C=C/c2ccccc2)C1 (racemic)
- remaining activity at 1.25 µM ([1]; Well no.=3371, low concentration screen): 92.9%
- remaining activity at 3.75 µM ([2]; Well no.=3371, high concentration screen): 95.8%

Structure (SMILES): CN(C)/N=N/c1[nH]cnc1C(N)=O [Dacarbazine]
- remaining activity at 1.25 µM ([1]; Well no.=1940, low concentration screen): 103%
- remaining activity at 3.75 µM ([2]; Well no.=1940, high concentration screen): 99.4%

Structure (SMILES): Nc1nc(Cl)nc2c1ncn2[C@@H]1O[C@H](CO)[C@@H](O)[C@@H]1F [Clofarabine]
- remaining activity at 1.25 µM ([1]; Well no.=1927, low concentration screen): 103%
- remaining activity at 1.25 µM ([1]; Well no.=8004, low concentration screen): 98.8%
- remaining activity at 3.75 µM ([2]; Well no.=1927, high concentration screen): 103%
- remaining activity at 3.75 µM ([2]; Well no.=8004, high concentration screen): 97.4%

Structure (SMILES): C[C@@H](O[C@H]1OCCN(Cc2n[nH]c(=O)[nH]2)[C@H]1c1ccc(F)cc1)c1cc(C(F)(F)F)cc(C(F)(F)F)c1 [Aprepitant]
- remaining activity at 1.25 µM ([1]; Well no.=2244, low concentration screen): 98.3%
- remaining activity at 1.25 µM ([1]; Well no.=6703, low concentration screen): 102%
- remaining activity at 3.75 µM ([2]; Well no.=2244, high concentration screen): 99.9%
- remaining activity at 3.75 µM ([2]; Well no.=6703, high concentration screen): 97.7%

Structure (SMILES): NCCC(O)(P(=O)(O)O)P(=O)(O)O [Pamidronate Disodium]
- remaining activity at 1.25 µM ([1]; Well no.=4773, low concentration screen): 96.6%
- remaining activity at 3.75 µM ([2]; Well no.=4773, high concentration screen): 97.3%

Structure (SMILES): COc1ccc([C@@H]2CC(=O)c3c(O)cc(O[C@@H]4O[C@H](CO[C@@H]5O[C@@H](C)[C@H](O)[C@@H](O)[C@H]5O)[C@@H](O)[C@H](O)[C@H]4O)cc3O2)cc1OC [Methyl-Hesperidin]
- remaining activity at 1.25 µM ([1]; Well no.=4864, low concentration screen): 98.4%
- remaining activity at 3.75 µM ([2]; Well no.=4864, high concentration screen): 99.3%

Structure (SMILES): CC(O)CC(=O)O (centres unmarked) [3-Hydroxybutyric acid]
- remaining activity at 1.25 µM ([1]; Well no.=7117, low concentration screen): 103%
- remaining activity at 3.75 µM ([2]; Well no.=7117, high concentration screen): 99%

Structure (SMILES): [2H]C([2H])([2H])NC[C@H](O)c1cccc(O)c1 [(R)-(-)-Phenylephrine (hydrochloride)]
- remaining activity at 1.25 µM ([1]; Well no.=6707, low concentration screen): 98.6%
- remaining activity at 3.75 µM ([2]; Well no.=6707, high concentration screen): 95.4%

Structure (SMILES): NCC=CC(=O)O (stereo in doubt) [cis-4-Aminocrotonic acid]
- remaining activity at 1.25 µM ([1]; Well no.=114, low concentration screen): 97.3%
- remaining activity at 3.75 µM ([2]; Well no.=114, high concentration screen): 98.2%

Structure (SMILES): O=C(O)C(O)Cc1ccccc1 (racemic) [DL-3-Phenyllactic acid]
- remaining activity at 1.25 µM ([1]; Well no.=7171, low concentration screen): 102%
- remaining activity at 3.75 µM ([2]; Well no.=7171, high concentration screen): 99.8%

Structure (SMILES): CN1[C@@H](CC(=O)c2ccccc2)CCC[C@H]1C[C@H](O)c1ccccc1
- remaining activity at 1.25 µM ([1]; Well no.=3438, low concentration screen): 97.9%
- remaining activity at 3.75 µM ([2]; Well no.=3438, high concentration screen): 97.7%

Structure (SMILES): CN[C@@H](C)C(=O)N[C@H](C(=O)N1CCC[C@H]1c1nc(C(=O)c2ccc(F)cc2)cs1)C1CCCCC1 [LCL161]
- remaining activity at 1.25 µM ([1]; Well no.=6594, low concentration screen): 91.2%
- remaining activity at 3.75 µM ([2]; Well no.=6594, high concentration screen): 94.5%
